Data: ChEMBL document CHEMBL6120962, “New Mitochondria-Targeted Fisetin Derivative Compromises Mitophagy and Limits Survival of Drug-Induced Senescent Breast Cancer Cells” (J Med Chem, 2024)
Active and inactive are the calls of the source. The rule behind the calls is not given here.

Legend:
HCC1428 [1] = assay: Induction of senescence in human HCC1428 cells assessed as increase in IL-8 level at 5 uM incubated for 24 hrs by immunostaining based imaging cytometric analysis; format: functional, cell-based
Mitochondrial membrane [2] = assay: Induction of mitochondrial membrane potential depolarization in human HCC1428 cells assessed as increase in fraction of depolarized dead cells at 5 uM incubated for 24 hrs by 7-AAD staining based flow cytometric analysis; format: cell membranes
HCC1428 [3] = assay: Induction of mitochondrial dysfunction in human HCC1428 cells assessed as decrease in coupling efficiency at 5 uM incubated for 6 hrs by real time analysis; format: functional, cell-based
HCC1428 [4] = assay: Induction of mitochondrial dysfunction in tamoxifen-induced senescent human HCC1428 cells assessed as decrease in ATP production at 5 uM incubated for 6 hrs by real-time analysis; format: functional, cell-based
HCC1500 [5] = assay: Induction of apoptosis in tamoxifen-induced senescent human HCC1500 cells assessed as phosphatidylserine externalization at 1 to 5 uM incubated for 24 hrs by Annexin V-FITC staining based flow cytometric analysis; format: functional, cell-based; conditions: dose 1-5 µM
ZR-75-30 [6] = assay: Induction of apoptosis in human ZR-75-30 cells assessed as phosphatidylserine externalization at 1 to 5 uM incubated for 24 hrs by Annexin V-FITC staining based flow cytometric analysis; format: functional, cell-based; conditions: dose 1-5 µM
HCC1500 [7] = assay: Induction of apoptosis in human HCC1500 cells assessed as decrease in Bcl2 level at 1 to 5 uM incubated for 24 hrs by Western blot analysis; format: functional, cell-based; conditions: dose 1-5 µM
ZR-75-30 [8] = assay: Induction of apoptosis in tamoxifen-induced senescent human ZR-75-30 cells assessed as phosphatidylserine externalization at 1 to 5 uM incubated for 24 hrs by Annexin V-FITC staining based flow cytometric analysis; format: functional, cell-based; conditions: dose 1-5 µM
HCC1428 [9] = assay: Induction of mitochondrial dysfunction in tamoxifen-induced senescent human HCC1428 cells assessed as decrease in coupling efficiency respiration at 5 uM incubated for 6 hrs by real-time analysis; format: functional, cell-based
[10] = Cytotoxicity against human MCF-10F cells assessed as effect on metabolic activity at 1 to 10 uM incubated for 24 hrs by MTT assay; format: toxicity, cell-based; conditions: dose 1-10 µM
[11] = biological target: Receptor-interacting serine/threonine-protein kinase 3 (Homo sapiens) (UniProt Q9Y572); assay: Induction of RIP3 phosphorylation in human HCC1428 cells at 1 to 5 uM incubated for 24 hrs by Western blot analysis; format: cell-based; conditions: dose 1-5 µM
Sequence of Receptor-interacting serine/threonine-protein kinase 3 (Homo sapiens) (Q9Y572 whole entry, looked up): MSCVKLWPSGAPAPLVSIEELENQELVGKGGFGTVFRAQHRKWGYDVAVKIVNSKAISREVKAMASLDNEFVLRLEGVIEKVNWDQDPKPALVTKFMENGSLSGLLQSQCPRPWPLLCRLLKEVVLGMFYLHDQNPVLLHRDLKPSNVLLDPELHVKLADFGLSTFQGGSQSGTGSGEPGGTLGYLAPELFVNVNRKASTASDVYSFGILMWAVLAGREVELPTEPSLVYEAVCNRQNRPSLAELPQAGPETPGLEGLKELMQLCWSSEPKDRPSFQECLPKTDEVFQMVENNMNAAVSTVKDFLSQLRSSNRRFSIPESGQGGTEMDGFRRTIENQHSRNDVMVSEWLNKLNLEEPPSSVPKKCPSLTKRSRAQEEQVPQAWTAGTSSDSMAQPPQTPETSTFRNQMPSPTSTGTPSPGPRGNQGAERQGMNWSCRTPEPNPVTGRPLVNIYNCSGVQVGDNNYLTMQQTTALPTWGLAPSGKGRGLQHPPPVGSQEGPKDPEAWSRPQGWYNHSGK

MCF-10F [12] = assay: Effect on Bcl-rambo protein level in tamoxifen-induced senescent human MCF-10F cells at 1 to 5 uM incubated for 24 hrs by Western blot analysis; format: functional, cell-based; conditions: dose 1-5 µM
HCC1428 [13] = assay: Induction of alternative mitophagy in tamoxifen-induced senescent human HCC1428 cells assessed as increase in Rab9 level at 1 to 5 uM by immunostaining based imaging cytometric analysis; format: functional, cell-based; conditions: dose 1-5 µM
MCF-10F [14] = assay: Induction of mitochondrial dysfunction in tamoxifen-induced senescent human MCF-10F cells assessed as decrease in maximal respiration at 5 uM incubated for 6 hrs by real-time analysis; format: functional, cell-based
[15] = biological target: Apoptosis regulator Bcl-2 (Homo sapiens) (UniProt P10415); assay: Binding affinity to recombinant human Bcl-2 assessed as interaction by measuring decrease in chemiluminescence signal at 0.01 to 5 uM incubated overnight by dot-blot analysis; conditions: dose 0.01-5 µM
Sequence of Apoptosis regulator Bcl-2 (Homo sapiens) (P10415 whole entry): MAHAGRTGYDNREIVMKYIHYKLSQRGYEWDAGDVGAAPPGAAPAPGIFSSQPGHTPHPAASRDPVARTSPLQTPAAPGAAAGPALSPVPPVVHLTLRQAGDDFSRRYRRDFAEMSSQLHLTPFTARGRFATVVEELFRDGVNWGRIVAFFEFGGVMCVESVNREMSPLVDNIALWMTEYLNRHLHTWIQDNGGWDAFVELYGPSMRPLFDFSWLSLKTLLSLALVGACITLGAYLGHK

CAMA-1 [16] = assay: Induction of apoptosis in human CAMA-1 cells assessed as decrease in Bcl2 level at 1 to 5 uM incubated for 24 hrs by Western blot analysis; format: functional, cell-based; conditions: dose 1-5 µM
HCC1428 [17] = assay: Induction of apoptosis in tamoxifen-induced senescent human HCC1428 cells assessed as increase in caspase 3 level incubated for 24 hrs by immunostaining based imaging cytometric analysis; format: functional, cell-based
CAMA-1 [18] = assay: Induction of apoptosis in tamoxifen-induced senescent human CAMA-1 cells assessed as phosphatidylserine externalization at 1 to 5 uM incubated for 24 hrs by Annexin V-FITC staining based flow cytometric analysis; format: functional, cell-based; conditions: dose 1-5 µM
HCC1428 [19] = assay: Induction of AMPK phosphorylation in tamoxifen-induced senescent human HCC1428 cells incubated for 24 hrs by immunostaining based imaging cytometric analysis; format: cell-based; conditions: filed as activator
ZR-75-30 [20] = assay: Induction of oxidative stress in tamoxifen-induced senescent human ZR-75-30 cells assessed as increase in mitochondrial superoxide production at 1 to 5 uM incubated for 24 hrs by MitoSOX red superoxide indicator based fluorescence analysis; format: functional, cell-based; conditions: dose 1-5 µM
ZR-75-30 [21] = assay: Effect on IL-8 level in human ZR-75-30 cells at 5 uM incubated for 24 hrs by immunostaining based imaging cytometric analysis; format: functional, cell-based
MCF7 = assay: Antitumor activity against ER-positive human MCF7 cells xenografted in Danio rerio embryo assessed as increase in Bax mRNA level at 1 to 5 uM administered for 48 hrs by RT-PCR analysis; format: functional, cell-based; conditions: dose 1-5 µM
HCC1428 [22] = assay: Induction of apoptosis in human HCC1428 cells assessed as decrease in AKT level at 1 to 5 uM incubated for 24 hrs by Western blotting analysis; format: functional, cell-based; conditions: dose 1-5 µM
[23] = biological target: T1, Receptor-interacting serine/threonine-protein kinase 1 (Homo sapiens) (UniProt Q13546); assay: Induction of RIP1 phosphorylation in human HCC1428 cells at 1 to 5 uM incubated for 24 hrs by Western blot analysis; format: cell-based; conditions: dose 1-5 µM
T1 sequence (whole entry): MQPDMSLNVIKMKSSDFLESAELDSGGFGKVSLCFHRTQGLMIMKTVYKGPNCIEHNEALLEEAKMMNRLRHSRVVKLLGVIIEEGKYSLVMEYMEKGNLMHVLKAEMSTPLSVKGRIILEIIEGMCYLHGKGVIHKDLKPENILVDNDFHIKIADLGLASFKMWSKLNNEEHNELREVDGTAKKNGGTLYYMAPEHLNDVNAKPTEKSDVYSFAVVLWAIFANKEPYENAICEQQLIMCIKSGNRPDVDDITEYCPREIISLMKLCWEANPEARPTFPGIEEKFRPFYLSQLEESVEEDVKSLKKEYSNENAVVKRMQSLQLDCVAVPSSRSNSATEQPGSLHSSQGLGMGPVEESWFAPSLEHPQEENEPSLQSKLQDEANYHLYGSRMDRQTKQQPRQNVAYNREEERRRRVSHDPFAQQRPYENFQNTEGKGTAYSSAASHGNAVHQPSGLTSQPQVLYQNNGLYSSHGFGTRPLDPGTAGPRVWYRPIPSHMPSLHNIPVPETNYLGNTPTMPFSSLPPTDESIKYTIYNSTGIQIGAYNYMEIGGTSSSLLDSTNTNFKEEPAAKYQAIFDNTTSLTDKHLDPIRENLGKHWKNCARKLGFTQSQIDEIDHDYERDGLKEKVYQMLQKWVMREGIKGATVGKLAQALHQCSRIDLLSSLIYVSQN

Mitochondrial membrane [24] = assay: Induction of mitochondrial membrane potential depolarization in human HCC1500 cells at 1 uM incubated for 24 hrs by 7-AAD staining based flow cytometric analysis; format: cell membranes
MCF-10F [25] = assay: Induction of mitochondrial dysfunction in tamoxifen-induced senescent human MCF-10F cells assessed as decrease in ATP production at 5 uM incubated for 6 hrs by real-time analysis; format: functional, cell-based
MCF-10F [26] = assay: Induction of mitochondrial dysfunction in human MCF-10F cells assessed as increase in proton leak at 5 uM incubated for 6 hrs by real time analysis; format: functional, cell-based
HCC1428 [27] = assay: Induction of mitochondrial dysfunction in human HCC1428 cells assessed as decrease in ATP production at 5 uM incubated for 6 hrs by real time analysis; format: functional, cell-based

Activity (Mitochondrial membrane [2]): Active | Activity [11]: inactive | Activity [15]: Active | Activity [23]: inactive | Activity (Mitochondrial membrane [24]): Active
Compound: CC(=O)Oc1ccc2c(=O)c(OCCCC[P+](c3ccccc3)(c3ccccc3)c3ccccc3)c(-c3ccc4c(c3)OC(c3ccccc3)(c3ccccc3)O4)oc2c1.[I-]
Activity (HCC1428 [1]): Active | Activity (HCC1428 [3]): Active | Activity (HCC1428 [4]): Active | Activity (HCC1500 [5]): Active | Activity (ZR-75-30 [6]): Active | Activity (HCC1500 [7]): Active | Activity (ZR-75-30 [8]): Active | Activity (HCC1428 [9]): Active | Activity [10]: Non-toxic | Activity (MCF-10F [12]): inactive | Activity (HCC1428 [13]): inactive | Activity (MCF-10F [14]): inactive | Activity (CAMA-1 [16]): Active | Activity (HCC1428 [17]): Active | Activity (CAMA-1 [18]): Active | Activity (HCC1428 [19]): Active | Activity (ZR-75-30 [20]): Active | Activity (ZR-75-30 [21]): inactive | Activity (MCF7): Active | Activity (HCC1428 [22]): Active | Activity (MCF-10F [25]): inactive | Activity (MCF-10F [26]): inactive | Activity (HCC1428 [27]): Active
